The values that follow come from PMC12070314, “Efficient Small-Molecule Reversal Agents for Anticoagulant Fondaparinux” (ACS Pharmacology & Translational Science, 2025).

For series [1], the system named is FXa/ATIII inhibited by fondaparinux. The series is described as follows: In vitro FXa/ATIII enzymatic assay of anti-fondaparinux activity. The series is classed as biochemical, human. Conditions: for Percent recovery of peptide substrate hydrolysis: [fond] = [antidote] = 15 μM, three reaction times. As for the experimental part:
The activity of two spermine derivatives, 3AC and 3FF, as fond antidotes was evaluated with an in vitro enzymatic assay related to blood coagulation, as previously described (Figure A). , In brief, fond promotes a conformational change in ATIII toward an efficient inhibitor of FXa. Addition of a ligand of fond hinders the inhibitory action of ATIII restoring the FXa hydrolytic activity, which has been used as an indirect measurement of antifond behavior.
Recombinant antithrombin III and coagulation factor Xa were obtained from two different kits, Berichrom Heparin test (SIEMENS) and Kinetichrome Anti-Xa Heparin kit (Iduron). Methods for both kits are similar, but not identical. Differences will be spotted by method A (SIEMENS) and method B (Iduron). Following the manufacturer’s instructions, stock solutions were prepared as follows: human antithrombin III (1 IU/mL) and factor Xa reagent (0.4 μg/mL, human plasma fraction with additives Tris, sodium chloride, and EDTA). Chromogenic substrate specific for factor Xa was dissolved at 4 mM concentration (A: Z-D-Leu-Gly-Arg-ANBA-methyl amide, and B: Z-D-Arg-Gly-Arg-pNA). Additionally, either 4-nitroaniline (A) or N-Boc-4-nitroaniline (B) was added to the substrate solution at a concentration of 1.6 mM and used as an internal standard to quantify the hydrolysis of the chromogenic substrate. All compounds were dissolved in Milli-Q water at the desired stock concentrations prior to start of the assays and kept at 4 °C. Various concentrations of the ligand, fondaparinux (up to 15 μM) or LMWH (0.1 to 10 μM), human antithrombin III solution (2 μL), and factor Xa reagent solution (35 μL) were consecutively added to an Eppendorf vial and brought to a total volume of 145 μL. Then, 20 μL of reagent substrate solution was added to start the experiment, and the mixture was vigorously shaken at 25 °C. 20 μL aliquots were taken at 5/10/15/20/30/50/80/120 minutes, diluted with 40 μL of acetic acid (20% v/v), and injected into the analytical HPLC system. The gradient ranged from 5% of ACN (0.1% formic acid) in water (0.1% formic acid) to 100% of ACN in 24 min using a 15 × 4.6 mm KROMAPHASE C18 5.0 μm column. In A: the retention time of cleaved chromophore was 9.1 min, retention time of chromogenic substrate was 13.9 min, and retention time of 4-nitroaniline was 15.4 min. In B: the retention time of chromogenic substrate was 11.0 min, retention time of cleaved chromophore was 15.2 min, and retention time of N-Boc-4-nitroaniline was 21.7 min. FXa/ATIII activity was represented as the percent of hydrolysis, which was calculated from the normalized area of the cleaved peptide at 405 nm at each corresponding time point. The experiment carried out in the absence of heparinoid was considered as the maximum of activity, while the experiment with heparinoid and no ligand was considered as negative control (maximum inhibition of FXa by heparinoid). The concentration of heparinoid was selected for the measurement to render significant inhibition within experimental time while allowing the reaction to proceed.

For series [2], the system named is freshly extracted mouse blood. The series is described as follows: Naked-eye ex vivo blood coagulation assay. It counts as cell-based. Conditions: for Reversal of fond anticoagulant effect (clot formation by vial inversion): 100 μM fond + 200 μM antidote, 5 min. The procedure:
Considering the results obtained in the in vitro assays, we aimed to test our molecules in a more relevant and challenging environment. To this aim, we performed naked-eye ex vivo coagulation assays (Figure ). Freshly extracted mouse blood samples were treated with fond (100 μM final concentration) in the absence and in the presence of different antidotes (two molar equivalents). Blood coagulation was visually inspected by the simple inversion of the vials. For a fair comparison between different series, all of the experiments were done in parallel with the corresponding control samples of untreated mouse blood (labeled “0” in Figure ). […] The effect of antidotes alone on blood coagulation was also tested (Figure B), showing that neither of the three small molecules appreciably changed the coagulation properties.
This naked-eye coagulation test is an adaptation of the whole blood clotting time assay. , Freshly collected mouse blood was directly used without further treatment. 300 μL aliquots were dispensed in Eppendorf tubes, to which fondaparinux (100 μM), and/or potential antidotes (3AC, 3FF, ciraparantag, or protamine, 200 μM) were added, and a picture was taken after 5 min. Clot formation was verified by inverting the Eppendorf vials.

Take `N=C(N)NCCC[C@H](N)C(=O)NCCCN1CCN(CCCNC(=O)[C@@H](N)CCCNC(=N)N)CC1` [cir, ciraparantag, reference compound]: the “Percent recovery of peptide substrate hydrolysis” value (shortened to “Percent recovery”) in series [1] was “performs similarly to the spermine derivative ligand (3AA)”. In series [2], the “Reversal of fond anticoagulant effect (clot formation by vial inversion)” value is reported as “good antidote, though qualitatively less effective than 3AC/3FF”.

Regarding `COc1ccccc1CNCCCNCCCCNCCCNCc1ccccc1OC` [Compound 3BB], the “Percent recovery” value in series [1] is “lower potency as antidotes”.

For the compound `Oc1ccccc1CNCCCNCCCCNCCCNCc1ccccc1O` [Compound 3AA], the “Percent recovery” value in series [1] is listed as “lower potency as antidotes”.

On to protamine, for which the “Percent recovery” value in series [1] is “practically no in vitro activity against fond”. Further, the “Reversal of fond anticoagulant effect (clot formation by vial inversion)” value in series [2] is reported as “fails to be an antidote of fond”. In series [2] (200 μM antidote, no fond), the “Effect of antidote alone on blood coagulation” value is “acts as an anticoagulant itself”.

In the case of `CO[C@H]1O[C@H](COS(=O)(=O)O)[C@@H](O[C@@H]2O[C@@H](C(=O)O)[C@@H](O[C@H]3O[C@H](COS(=O)(=O)O)[C@@H](O[C@@H]4O[C@H](C(=O)O)[C@@H](O[C@H]5O[C@H](COS(=O)(=O)O)[C@@H](O)[C@H](O)[C@H]5NS(=O)(=O)O)[C@H](O)[C@H]4O)[C@H](OS(=O)(=O)O)[C@H]3NS(=O)(=O)O)[C@H](O)[C@H]2OS(=O)(=O)O)[C@H](O)[C@H]1NS(=O)(=O)O` [fond, Fondaparinux], the “Effect on FXa hydrolytic activity” value in series [1] (fond 15 μM, FXa/ATIII, no antidote) is recorded as “clearly reduces the hydrolytic activity”. Further, the “Effect on blood coagulation (vial inversion)” value in series [2] (fond 100 μM alone) is listed as “anticoagulant effect”.
